# According to PubChem BioAssay AID1053146 (Broad Institute, 2014):
# Tested on: HepG2 BODIPY-LDL uptake, high-content imaging
# Assay: LDL uptake enhancers in HepG2, dose response, imaging, BODIPY-LDL, cherry-pick (AID 1053146)
row,SMILES,EC50
1,CN1C(=O)c2cc(NC(=O)c3ccc(C(F)(F)F)cc3)ccc2OC[C@@H]2O[C@H](CC(=O)NC3Cc4ccccc4C3)CC[C@@H]21,1100 nM
2,CN1C(=O)c2cc(NC(=O)c3ccc(C(F)(F)F)cc3)ccc2OC[C@@H]2O[C@@H](CC(=O)NC3Cc4ccccc4C3)CC[C@@H]21,4600 nM
